The supplement of paper PMC6045584
± gives the standard deviation of the averaged measurements.

Compound: COc1cc2ncnc(Nc3ccc(F)c(Cl)c3)c2cc1OCCCN1CCOCC1 [GEFITINIB]
Assay: surviving fraction relative to DMSO-only wells; higher = less growth inhibition
Conditions: 5 nM; exposure time: 5 days
In short: (§1)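 Inhibitors were tested at 0.5, 1, 5, 10, 50, 100, 500 and 1000 nM, applied continuously for five days beginning 24 hours after log-phase tumour cells were seeded at 250–500 per well in 384-well plates. CellTiter-Glo luminescence served as the viability measure, expressed as surviving fraction against the median of DMSO-only wells. Each line, screened three times, was kept only with replicate Pearson r >0.7 and median Z' >0.3.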

In order of falling surviving fraction:
1. SUM149 BREAST  1.08 ± 0.052
2. SKBR3 BREAST  1.04 ± 0.089
3. U2OS BONE  1.03 ± 0.015
4. H23 LUNG  0.989 ± 0.014
5. DU4475 BREAST  0.82 ± 0.095

Same assay, conditions: 10 nM; exposure time: 5 days

In order of rising surviving fraction:
1. DU4475 BREAST  0.914 ± 0.01
2. H23 LUNG  0.918 ± 0.03
3. U2OS BONE  0.989 ± 0.0078
4. SKBR3 BREAST  1.02 ± 0.11
5. SUM149 BREAST  1.15 ± 0.12

Same assay, conditions: 50 nM; exposure time: 5 days

In order of falling surviving fraction:
1. U2OS BONE  1.04 ± 0.027
2. SKBR3 BREAST  1 ± 0.062
3. SUM149 BREAST  0.926 ± 0.016
4. DU4475 BREAST  0.879 ± 0.14
5. H23 LUNG  0.603 ± 0.075

Same assay, conditions: 100 nM; exposure time: 5 days

In order of rising surviving fraction:
1. H23 LUNG  0.458 ± 0.053
2. SUM149 BREAST  0.8 ± 0.026
3. SKBR3 BREAST  0.844 ± 0.026
4. DU4475 BREAST  0.906 ± 0.16
5. U2OS BONE  1.04 ± 0.031

Same assay, conditions: 500 nM; exposure time: 5 days

In order of falling surviving fraction:
1. DU4475 BREAST  1.01 ± 0.1
2. U2OS BONE  0.959 ± 0.0095
3. SUM149 BREAST  0.487 ± 0.04
4. SKBR3 BREAST  0.361 ± 0.0087
5. H23 LUNG  0.356 ± 0.05

Same assay, conditions: 1000 nM; exposure time: 5 days

In order of rising surviving fraction:
1. SKBR3 BREAST  0.249 ± 0.03
2. H23 LUNG  0.346 ± 0.0093
3. SUM149 BREAST  0.448 ± 0.076
4. DU4475 BREAST  0.889 ± 0.069
5. U2OS BONE  0.98 ± 0.048

Compound: CC(=O)c1c(C)c2cnc(Nc3ccc(N4CCNCC4)cn3)nc2n(C2CCCC2)c1=O
Assay: as above
Conditions: 0.5 nM; exposure time: 5 days
In short: as §1

In order of falling surviving fraction:
1. SUM149 BREAST  1.15 ± 0.042
2. DU4475 BREAST  1.11 ± 0.15
3. SKBR3 BREAST  1.04 ± 0.16
4. U2OS BONE  1.02 ± 0.044
5. H23 LUNG  1.01 ± 0.035

Same assay, conditions: 1 nM; exposure time: 5 days

In order of falling surviving fraction:
1. DU4475 BREAST  1.23 ± 0.076
2. SKBR3 BREAST  1.12 ± 0.066
3. SUM149 BREAST  1.09 ± 0.049
4. U2OS BONE  1.01 ± 0.04
5. H23 LUNG  1 ± 0.029

Same assay, conditions: 5 nM; exposure time: 5 days

In order of falling surviving fraction:
1. DU4475 BREAST  1.08 ± 0.17
2. U2OS BONE  1.06 ± 0.021
3. H23 LUNG  1.04 ± 0.038
4. SUM149 BREAST  1.04 ± 0.076
5. SKBR3 BREAST  0.958 ± 0.06

Same assay, conditions: 10 nM; exposure time: 5 days

In order of rising surviving fraction:
1. H23 LUNG  0.928 ± 0.065
2. SUM149 BREAST  0.943 ± 0.11
3. SKBR3 BREAST  0.987 ± 0.22
4. U2OS BONE  1.06 ± 0.033
5. DU4475 BREAST  1.08 ± 0.31

Same assay, conditions: 50 nM; exposure time: 5 days

In order of rising surviving fraction:
1. SKBR3 BREAST  0.923 ± 0.056
2. DU4475 BREAST  1.03 ± 0.3
3. U2OS BONE  1.06 ± 0.034
4. SUM149 BREAST  1.1 ± 0.065
5. H23 LUNG  1.132 ± 0.01

Same assay, conditions: 100 nM; exposure time: 5 days

In order of rising surviving fraction:
1. SKBR3 BREAST  0.892 ± 0.12
2. DU4475 BREAST  0.997 ± 0.36
3. U2OS BONE  1.06 ± 0.033
4. H23 LUNG  1.12 ± 0.068
5. SUM149 BREAST  1.14 ± 0.064

Same assay, conditions: 500 nM; exposure time: 5 days

In order of rising surviving fraction:
1. SKBR3 BREAST  0.82 ± 0.085
2. SUM149 BREAST  0.871 ± 0.024
3. U2OS BONE  0.979 ± 0.032
4. DU4475 BREAST  1.02 ± 0.32
5. H23 LUNG  1.15 ± 0.074

Same assay, conditions: 1000 nM; exposure time: 5 days

In order of falling surviving fraction:
1. H23 LUNG  1.13 ± 0.033
2. U2OS BONE  0.981 ± 0.062
3. DU4475 BREAST  0.951 ± 0.32
4. SUM149 BREAST  0.88 ± 0.07
5. SKBR3 BREAST  0.855 ± 0.067

Compound: CC(=O)O[C@H]1C(=O)[C@@]2(C)[C@H]([C@H](OC(=O)c3ccccc3)[C@]3(O)C[C@H](OC(=O)[C@H](O)[C@@H](NC(=O)c4ccccc4)c4ccccc4)C(C)=C1C3(C)C)[C@]1(OC(C)=O)CO[C@@H]1C[C@@H]2O [PACLITAXEL]
Assay: as above
Conditions: 0.5 nM; exposure time: 5 days
In short: as §1

In order of falling surviving fraction:
1. U2OS BONE  1 ± 0.037
2. DU4475 BREAST  0.975 ± 0.17
3. H23 LUNG  0.951 ± 0.03
4. SKBR3 BREAST  0.925 ± 0.13
5. SUM149 BREAST  0.809 ± 0.053

Same assay, conditions: 1 nM; exposure time: 5 days

In order of rising surviving fraction:
1. SKBR3 BREAST  0.413 ± 0.061
2. SUM149 BREAST  0.452 ± 0.11
3. H23 LUNG  0.866 ± 0.022
4. DU4475 BREAST  0.946 ± 0.26
5. U2OS BONE  0.985 ± 0.016

Same assay, conditions: 5 nM; exposure time: 5 days

In order of falling surviving fraction:
1. U2OS BONE  0.488 ± 0.011
2. DU4475 BREAST  0.243 ± 0.069
3. H23 LUNG  0.18 ± 0.0027
4. SKBR3 BREAST  0.165 ± 0.0059
5. SUM149 BREAST  0.0573 ± 0.004

Same assay, conditions: 10 nM; exposure time: 5 days

In order of rising surviving fraction:
1. SUM149 BREAST  0.0463 ± 0.0085
2. DU4475 BREAST  0.129 ± 0.021
3. H23 LUNG  0.14 ± 0.0095
4. SKBR3 BREAST  0.157 ± 0.02
5. U2OS BONE  0.271 ± 0.012

Same assay, conditions: 50 nM; exposure time: 5 days

In order of rising surviving fraction:
1. SUM149 BREAST  0.0357 ± 0.00058
2. DU4475 BREAST  0.0387 ± 0.013
3. U2OS BONE  0.106 ± 0.0087
4. H23 LUNG  0.113 ± 0.0091
5. SKBR3 BREAST  0.135 ± 0.023

Same assay, conditions: 100 nM; exposure time: 5 days

In order of rising surviving fraction:
1. SUM149 BREAST  0.0373 ± 0.0038
2. DU4475 BREAST  0.044 ± 0.0089
3. U2OS BONE  0.0817 ± 0.0093
4. H23 LUNG  0.108 ± 0.0042
5. SKBR3 BREAST  0.139 ± 0.013

Same assay, conditions: 500 nM; exposure time: 5 days

In order of falling surviving fraction:
1. H23 LUNG  0.0867 ± 0.0067
2. U2OS BONE  0.0593 ± 0.0085
